Measured values published in patent publication US9265268B2, “Method of handling bananas” (priority 2009, dated 2016).

Assays:
bananas [1] = test: Example 2A: evaluation process A (4 days post-MCP in bag at 14° C., then 7 days at approx. 22° C.); format: in vivo, Musa; conditions: for Color Stage (mean) / Sugar Spots (mean %): 4 days in bag at 14° C., then 7 days at approx. 22° C.
Source text: The color of banana peels is rated according to a seven stage rating scale: stage 1 (dark green); stage 2 (all light green); stage 3 (half green and half yellow); stage 4 (more yellow than green); stage 5 (green tips and necks); stage 6 (all yellow; maybe light green necks, no green tips); stage 7 (yellow flecked with brown). Consumers generally prefer to eat bananas in stage 5 or stage 6.
Bananas were harvested at 13 weeks of age. Fruit bunches were separated into hands, then washed, and excess latex was removed in chlorinated water tanks using standard commercial practices. The washed hands of bananas were further broken into clusters and treated with fungicide. Clusters were placed into plastic bags; each bag held approximately 1.4 kg (3 lbs) of bananas. The bananas remained in these bags until they were removed for evaluation (see below).
The plastic bags were either T bags or were modified-atmosphere bags (“MAP” bags). The T bags (also called “PE bags” herein) were typical of bags normally used in commerce for bananas. The bags were then placed into cartons. Each carton held 13 bags. Each carton either held MAP bags only or else held PE bags only. 20 cartons of MAP bags and 20 cartons of PE bags were prepared.
The cartons were placed in a refrigerated truck and transported to a storage facility. The distance from harvest to storage was approximately 100 km. The temperature in the refrigerated truck was 14 to 18° C. To simulate the effect of shipping over long distances, the cartons were placed in conventional cold storage room at 14° C. for two weeks. In storage, the cartons were placed so that air could circulate between and around each carton.
After the storage period, the thermostat of the holding room was raised to 18° C., and no further action was taken until the holding room was at 18° C. for 12 hours. Bananas were ripened using a 5-day schedule, as follows. The temperatures shown are pulp temperatures; if necessary, the thermostat was lowered so that pulp temperature remained at the desired temperature despite any respiration that may be taking place in the bananas.
On day 5 at approximately 4 pm, the cartons were divided in to seven groups: one untreated control (“UTC”) group (6 cartons) and six treatment groups. Each group had equal number of PE cartons and MAP cartons. The six treatment groups were as follows:
UTC cartons were placed in a shed that had good ventilation. The remaining cartons remained in the holding room. Four airtight tents were erected in the holding room. Each tent held all the cartons for one of the treatment groups PE-3-C, PE-10-C, MAP-3, and MAP-10.
At day 5 at approximately 4 pm, the bananas had reached color stage 2.5 to 3.5. Treatment groups PE-3-C, PE-10-C, MAP-3, and MAP-10 were then exposed to 1-MCP overnight at the concentrations shown above.
Some of the bananas from each group described in Example 2 were evaluated by process “A” as follows: After treatment groups PE-3-C, PE-10-C, MAP-3, and MAP-10 received exposure to 1-MCP, the bananas remained in their bags in the holding room at 14° C. for 4 days; then the bananas were removed from the bags and stored at approximately 22° C. for 7 days; then the bananas were evaluated.

bananas [2] = test: Example US-5: various levels of 1-MCP; format: in vivo, Musa; design: SS (sugar spots): scale not given here; conditions: 7 days
Protocol: Bananas were grown, shipped, and ripened as described in Example US-1. All bananas were in T-bags through the ripening cycle. At color stage 3.0 to 4.0, the bananas, still in T-bags, were placed in various airtight containers; in each container, a specified concentration of 1-MCP was released into the air; bananas remained in those containers for 12 hours. After that, half of each treatment group was transferred to MAP bags, and all bananas were placed into post-MCP storage as in US-1. At the end of 7 days, bananas were evaluated for sugar spots (SS), color stage (CS), and firmness (F). Firmness was measured with a Fruit Texture Analyzer (Güss Company, Republic of South Africa) using a probe of 8 mm diameter.

[3] = MAP-10: MAP bag, 1000 ppb 1-MCP
[4] = PE-10-C: PE bag, 1000 ppb 1-MCP

CC1=CC1 [1-MCP, 1-methylcyclopropene]
Comments (additional observations) (bananas [1]; MAP-3: MAP bag, 300 ppb 1-MCP): Fruit with excellent bright yellow color. Only high
Delay in sugar spot development longer than MAP-0 (bananas [1]; MAP-3: MAP bag, 300 ppb 1-MCP): at least three
Color Stage (mean) (bananas [1]; MAP-3: MAP bag, 300 ppb 1-MCP): 6.3
Sugar Spots (mean %) (bananas [1]; MAP-3: MAP bag, 300 ppb 1-MCP): 3%
Comments (additional observations) (bananas [1]; [3]): Almost all fruit was at the right color for sale,
Delay in sugar spot development longer than MAP-0 (bananas [1]; [3]): at least three
Color Stage (mean) (bananas [1]; [3]): 6.1
Sugar Spots (mean %) (bananas [1]; [3]): 2%
Comments (additional observations) (bananas [1]; PE-3-C: PE bag, 300 ppb 1-MCP): Some fruit was in a good color stage. However most
Color Stage (mean) (bananas [1]; PE-3-C: PE bag, 300 ppb 1-MCP): 6.8
Sugar Spots (mean %) (bananas [1]; PE-3-C: PE bag, 300 ppb 1-MCP): 35%
Comments (additional observations) (bananas [1]; [4]): Some fruit was in a good color stage. However most
Color Stage (mean) (bananas [1]; [4]): 6.9
Sugar Spots (mean %) (bananas [1]; [4]): 73%
CS (color stage) (bananas [2]; MAP, 1 ppb 1-MCP): 5.2
F (firmness) (bananas [2]; MAP, 1 ppb 1-MCP): 0.584 kg
SS (sugar spots) (bananas [2]; MAP, 1 ppb 1-MCP): 1.8
CS (color stage) (bananas [2]; MAP, 5 ppb 1-MCP): 4.8
F (firmness) (bananas [2]; MAP, 5 ppb 1-MCP): 0.602 kg
SS (sugar spots) (bananas [2]; MAP, 5 ppb 1-MCP): 0.5
CS (color stage) (bananas [2]; MAP, 10 ppb 1-MCP): 5.4
F (firmness) (bananas [2]; MAP, 10 ppb 1-MCP): 0.599 kg
SS (sugar spots) (bananas [2]; MAP, 10 ppb 1-MCP): 1.5
CS (color stage) (bananas [2]; MAP, 25 ppb 1-MCP): 5.6
F (firmness) (bananas [2]; MAP, 25 ppb 1-MCP): 0.603 kg
SS (sugar spots) (bananas [2]; MAP, 25 ppb 1-MCP): 0.8
CS (color stage) (bananas [2]; MAP, 50 ppb 1-MCP): 5.5
F (firmness) (bananas [2]; MAP, 50 ppb 1-MCP): 0.593 kg
SS (sugar spots) (bananas [2]; MAP, 50 ppb 1-MCP): 1.0
CS (color stage) (bananas [2]; MAP, 100 ppb 1-MCP): 5.2
F (firmness) (bananas [2]; MAP, 100 ppb 1-MCP): 0.581 kg
SS (sugar spots) (bananas [2]; MAP, 100 ppb 1-MCP): 1.0
CS (color stage) (bananas [2]; MAP, 200 ppb 1-MCP): 4.9
F (firmness) (bananas [2]; MAP, 200 ppb 1-MCP): 0.592 kg
SS (sugar spots) (bananas [2]; MAP, 200 ppb 1-MCP): 0.8
CS (color stage) (bananas [2]; MAP, 1000 ppb 1-MCP): 6.2
F (firmness) (bananas [2]; MAP, 1000 ppb 1-MCP): 0.617 kg
SS (sugar spots) (bananas [2]; MAP, 1000 ppb 1-MCP): 1.8
CS (color stage) (bananas [2]; MAP, 5000 ppb 1-MCP): 6.2
F (firmness) (bananas [2]; MAP, 5000 ppb 1-MCP): 0.602 kg
SS (sugar spots) (bananas [2]; MAP, 5000 ppb 1-MCP): 1.2
CS (color stage) (bananas [2]; MAP, 50000 ppb 1-MCP): 5.6
F (firmness) (bananas [2]; MAP, 50000 ppb 1-MCP): 0.585 kg
SS (sugar spots) (bananas [2]; MAP, 50000 ppb 1-MCP): 2.5
CS (color stage) (bananas [2]; T-bag, 1 ppb 1-MCP): 6.6
F (firmness) (bananas [2]; T-bag, 1 ppb 1-MCP): 0.561 kg
SS (sugar spots) (bananas [2]; T-bag, 1 ppb 1-MCP): 2.2
CS (color stage) (bananas [2]; T-bag, 5 ppb 1-MCP): 6.6
F (firmness) (bananas [2]; T-bag, 5 ppb 1-MCP): 0.571 kg
SS (sugar spots) (bananas [2]; T-bag, 5 ppb 1-MCP): 2.8
CS (color stage) (bananas [2]; T-bag, 10 ppb 1-MCP): 6.6
F (firmness) (bananas [2]; T-bag, 10 ppb 1-MCP): 0.568 kg
SS (sugar spots) (bananas [2]; T-bag, 10 ppb 1-MCP): 2.0
CS (color stage) (bananas [2]; T-bag, 25 ppb 1-MCP): 6.2
F (firmness) (bananas [2]; T-bag, 25 ppb 1-MCP): 0.576 kg
SS (sugar spots) (bananas [2]; T-bag, 25 ppb 1-MCP): 2.5
CS (color stage) (bananas [2]; T-bag, 50 ppb 1-MCP): 7.0
F (firmness) (bananas [2]; T-bag, 50 ppb 1-MCP): 0.591 kg
SS (sugar spots) (bananas [2]; T-bag, 50 ppb 1-MCP): 2.2
CS (color stage) (bananas [2]; T-bag, 100 ppb 1-MCP): 7.0
F (firmness) (bananas [2]; T-bag, 100 ppb 1-MCP): 0.571 kg
SS (sugar spots) (bananas [2]; T-bag, 100 ppb 1-MCP): 2.5
CS (color stage) (bananas [2]; T-bag, 200 ppb 1-MCP): 7.0
F (firmness) (bananas [2]; T-bag, 200 ppb 1-MCP): 0.589 kg
SS (sugar spots) (bananas [2]; T-bag, 200 ppb 1-MCP): 3.0
CS (color stage) (bananas [2]; T-bag, 1000 ppb 1-MCP): 7.0
F (firmness) (bananas [2]; T-bag, 1000 ppb 1-MCP): 0.601 kg
SS (sugar spots) (bananas [2]; T-bag, 1000 ppb 1-MCP): 3.0
CS (color stage) (bananas [2]; T-bag, 5000 ppb 1-MCP): 6.2
F (firmness) (bananas [2]; T-bag, 5000 ppb 1-MCP): 0.579 kg
SS (sugar spots) (bananas [2]; T-bag, 5000 ppb 1-MCP): 3.0
CS (color stage) (bananas [2]; T-bag, 50000 ppb 1-MCP): 6.6
F (firmness) (bananas [2]; T-bag, 50000 ppb 1-MCP): 0.563 kg
SS (sugar spots) (bananas [2]; T-bag, 50000 ppb 1-MCP): 2.8
